Laboratory results reported in PMC3820767, “Turning Defense into Offense: Defensin Mimetics as Novel Antibiotics Targeting Lipid II” (PLoS Pathogens, 2013).

Tests used:
[1] = system: Staphylococcus aureus ATCC 29213; assay: Antagonization of defensin antibacterial activity by 3-Lipid II; format: cell-based; settings: 50 µM defensin pre-incubated with 3-Lipid II at 1:1 molar ratio
Experimental: Antagonization of the antibacterial activity of defensins against Staphylococcus aureus ATCC 29213 was carried out in a 96-well turbidimetric assay essentially as described previously. Defensins (50 µM final concentration) were pre-incubated with 3-Lipid II at 1∶1, 1∶2.5 and 1∶5 defensin: Lipid II molar ratios for 30 min at RT. Following incubation, solutions were diluted two-fold in ten steps and bacteria were added. Defensin activity was neutralized by the addition of Mueller Hinton broth. Bacterial growth was monitored for 12 hours and data were analyzed as described.

[2] = Cytotoxicity by MTT assay; format: cell-based, human; settings: human, Caco-2 cells; Table S3; No = not cytotoxic; read-out: cytotoxic for Caco II (C50% survival)
[3] = system: Escherichia coli ATCC 25922; assay: Antibacterial killing, 96-well turbidimetric (modified vCC) assay; format: cell-based; settings: for active against E.coli (IC100%): Table S3, concentration at which 100% killing occurred, no bacterial regrowth, No = not active; for Bacterial Killing E. coli: concentration resulting in 100% killing after 30 min exposure, modified vCC assay
How it was run: (§1)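 For the S. pneumoniae strains, MIC values follow CLSI broth microdilution standards. The staphylococcal and E. coli killing assay instead pre-incubated bacteria with compound for 30 min in 10 mM phosphate buffer containing 5% DMSO before adding 2× Mueller-Hinton medium, monitoring growth over 12 hours.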

[4] = system: Staphylococcus aureus ATCC 29213; assay: as above; format: cell-based; settings: for active against S.aureus (IC100%): Table S3, concentration at which 100% killing occurred, no bacterial regrowth, No = not active; for Bacterial Killing S. aureus: concentration resulting in 100% killing after 30 min exposure, modified vCC assay
How it was run: as §1

[5] = Surface Plasmon Resonance binding to immobilized 3-Lipid II; settings: SPR; for Binding on Lipid II?: Table S3, initial determination at 10 µM
How it was run: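 Binding was measured by Surface Plasmon Resonance on a BIAcore T100 instrument at 25°C. Peptides were injected over the sensor flow-cells at 30 µl/min in running buffer of 10 mM HEPES, 150 mM NaCl, 0.05% surfactant P20, pH 7.4 (±3 mM EDTA) with 10% DMSO. Control flow-cell signals were subtracted, surfaces were regenerated with 50 mM NaOH, and isotherms were fitted with BIAcore software.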

Caco-2 = assay: Cytotoxicity by MTT assay; format: cell-based, human
[6] = system: Enterococcus faecalis (VRE) MMX848; assay: Broth microdilution susceptibility testing (CLSI); format: cell-based
Experimental: (§2) The antibacterial activity of defensin mimetics against Staphylococcus aureus ATCC 29213 and Escherichia coli 25922 was carried out in a 96-well turbidimetric assay essentially as described previously with the following modifications: bacteria were exposed for 30 min to compounds in 10 mM phosphate buffer containing 5% DMSO prior to addition of 2× Muller-Hinton medium. Bacterial growth was monitored for 12 hours and data were analyzed as described. Determination of MICs was performed by Micromyx, LLC (Kalamazoo, Michigan) according to CLSI standards.

[7] = system: Pseudomonas aeruginosa MMX103-ATCC 27853; assay: Broth microdilution susceptibility testing (CLSI); format: cell-based
Experimental: as §2

[8] = system: Enterococcus faecalis MMX101-ATCC 29212; assay: Broth microdilution susceptibility testing (CLSI); format: cell-based
Experimental: as §2

[9] = system: Staphylococcus aureus MMX100-ATCC 29213; assay: Broth microdilution susceptibility testing (CLSI); format: cell-based
Experimental: as §2

[10] = system: Streptococcus pneumoniae MMX1195-ATCC 49619; assay: Broth microdilution susceptibility testing (CLSI); format: cell-based
Experimental: as §2

[11] = system: Staphylococcus aureus (MRSA) MMX757; assay: Broth microdilution susceptibility testing (CLSI); format: cell-based
Experimental: as §2

[12] = system: Escherichia coli MMX102-ATCC 25922; assay: Broth microdilution susceptibility testing (CLSI); format: cell-based
Experimental: as §2

[13] = system: Streptococcus pneumonia (PRSP) MMX884; assay: Broth microdilution susceptibility testing (CLSI); format: cell-based, Streptococcus pneumoniae
Experimental: as §2

Jurkat = assay: Cytotoxicity by MTT assay; format: cell-based, human

Row | Binding on Lipid II? [5] | MIC Enterococcus faecalis (VRE) 848-NA [6] [µg/mL] | MIC Pseudomonas aeruginosa 103-27853 [7] [µg/mL] | MIC Enterococcus faecalis 101-29212 [8] [µg/mL] | MIC Staphylococcus aureus 100-29213 [9] [µg/mL] | MIC Streptococcus pneumoniae 1195-49619 [10] [µg/mL] | MIC Staphylococcus aureus (MRSA) 757-NA [11] [µg/mL] | MIC Escherichia coli 102-25922 [12] [µg/mL] | MIC Streptococcus pneumonia (PRSP) 884-NA [13] [µg/mL] | Kd ([5]; immobilized 3-Lipid II) [µM] | Molecule | antagonization of bactericidal activity by Lipid II [1] | IC50 [2] [µM] | active against E.coli (IC100%) [3] | active against S.aureus (IC100%) [4] | IC50 (Caco-2) [µM] | Bacterial Killing E. coli [3] [µM] | Bacterial Killing S. aureus [4] [µM] | IC50 (Jurkat) [µM]
1 | – | – | – | – | – | – | – | – | – | – | HNP-1: chemically synthesized wild-type human alpha-defensin Human Neutrophil peptide-1 | partly antagonized by one order of magnitude | – | – | – | – | – | – | –
2 | No | – | – | – | – | – | – | – | – | – | OCC1c2ccccc2-c2ccccc21 [Compound 4121-0081, 9H-fluoren-9-ylmethanol] | – | 202 | No | No | – | – | – | –
3 | No | 16 | >64 | 16 | 2 | >8 | 2 | 64 | >8 | – | CC[n+]1c(/C=C2C=C(/C=C/N(C)c3ccccc3)CC(C)(C)C/2)sc2ccccc21 [Compound 4090-1978, 2-{[(1E)-5,5-dimethyl-3-[(E)-2-[methyl(phenyl)amino]ethenyl]cyclohex-2-en-1-ylidene]methyl}-3-ethyl-1,3-benzothiazol-3-ium] | – | – | 62,5 µM | 15,625 µM | 16.7 | 62.5 | 15.6 | 87.3
4 | Yes | 4 | >8 | 2 | 1 | 16 | 2 | >8 | 16 | 4.26 | CN(C)c1ccc(/C=C/c2cc(C(C)(C)C)[o+]c(C(C)(C)C)c2)cc1 [Compound 1493-0289, 2,6-di-tert-butyl-4-[(E)-2-[4-(dimethylamino)phenyl]ethenyl]-1$l^4-pyran-1-ylium] | – | – | 125 µM | 3,9 µM | 6.8 | 125 | 3.9 | 41.7
